± gives the expanded uncertainty stated by the source.
Experiments:
[1] = 298.15 K; 101.33 kPa; Liquid; Vibrating tube method
[2] = refractive index (Na D-line) (dimensionless); conditions: 298.15 K; 101.33 kPa; Liquid; Standard Abbe refractometry

With c1ccsc1 [thiophene] the mass density [1] was 1058.5 ± 0.12 kg/m3 and the refractive index [2] was 1.52581 ± 0.00068.
With CCCCCC [hexane] the mass density [1] was 655.06 ± 0.19 kg/m3 and the refractive index [2] was 1.37287 ± 0.00068.
Compound CCCCCCCC[n+]1ccn(C)c1.F[B-](F)(F)F [1-methyl-3-octylimidazolium tetrafluoroborate] has a mass density [1] of 1104.42 ± 6.6 kg/m3 and a refractive index [2] of 1.43329 ± 0.0012.
In the case of C1CCCCC1 [cyclohexane], the mass density [1] is reported as 773.76 ± 0.24 kg/m3 and the refractive index [2] is reported as 1.42403 ± 0.0007.

Reference: the NIST ThermoML archive (doi:10.1021/je700126z)
